Data taken from article PMC2680961, “Homologous desensitization of signalling by the alpha (α) isoform of the human thromboxane A2 receptor: A specific role for nitric oxide signalling” (Biochimica et Biophysica Acta, 2007).

Target: T1, TP^Δ328 (Homo sapiens, UniProt P21731)
T1 construct: expressed in transfected cells
T1 sequence (P21731 1-328): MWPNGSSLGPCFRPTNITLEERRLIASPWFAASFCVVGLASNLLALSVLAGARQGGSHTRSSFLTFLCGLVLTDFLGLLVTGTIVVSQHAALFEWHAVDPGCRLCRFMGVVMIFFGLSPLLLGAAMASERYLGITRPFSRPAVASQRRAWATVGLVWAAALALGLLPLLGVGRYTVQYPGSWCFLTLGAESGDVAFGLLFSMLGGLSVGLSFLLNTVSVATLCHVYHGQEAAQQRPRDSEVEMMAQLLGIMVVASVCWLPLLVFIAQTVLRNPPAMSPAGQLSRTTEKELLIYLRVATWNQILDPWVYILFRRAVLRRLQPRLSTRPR
Test: IP3 generation, HEK.TP^Δ328 cells
Type: cell-based
Settings: 1 μM U46619 2 min, washout, restimulation at 60 min
Method: Intracellular IP3 levels were measured as previously described [[33,43]]. Briefly, cells were harvested by scraping, washed twice in ice-cold PBS and resuspended at approximately 2 × 10^6 cells/200 μl in HEPES-buffered saline (HBS; […], 4.7 mM KCl, 2.2 mM CaCl2, 1.2 mM KH2PO4, 11 mM glucose, 15 mM HEPES–NaOH, pH 7.4), 10 mM LiCl (Walsh et al., 2000). […] Thereafter, cells were stimulated with 1 μM U46619 at 37 °C for 2 min. To assess agonist-mediated homologous desensitization, cells (2 × 10^6 cells/200 μl) were stimulated with 1 μM U46619 at 37 °C for 2 min (Primary stimulation); thereafter, cells were collected by centrifugation (900×g, 5 min); were washed once in 200 μl HBS, 10 mM LiCl and finally resuspended in 200 μl HBS, 10 mM LiCl and were left to recover for 60 min; thereafter, cells were re-stimulated with 1 μM U46619 at 37 °C for 2 min (secondary stimulation). All ligands and […] were pre-diluted in HBS such that 50 μl added to 200 μl of cell suspension in HBS gave the desired final concentration. To determine basal IP3 levels, an equivalent volume (50 μl) of the vehicle HBS was added instead of ligand. The level of IP3 produced was quantified by radio competition assay essentially as described. […]

SMILES: CCCCC[C@H](O)/C=C/[C@@H]1[C@@H](C/C=C\CCCC(=O)O)[C@H]2CO[C@@H]1C2 [U46619]
- IP3 generation following secondary restimulation after U46619 pre-incubation: no significant effect
